# Measurements: PMC5867665, “Targeting Multiple Effector Pathways in Pancreatic Ductal Adenocarcinoma with a G-Quadruplex-Binding Small Molecule” (Journal of Medicinal Chemistry, 2018)
# What was measured:
# [1] = target: hERG (Homo sapiens, UniProt Q12809); assay: hERG liability (unpublished data)
# [2] = test system: MIA PaCa-2 pancreatic tumor xenograft; assay: Subcutaneous MIA PaCa-2 pancreatic tumor xenograft therapy study; assay type: in vivo; conditions: for tumor regrowth after dosing stopped: 15 mg/kg, from day 28 onward
# Description: To determine if the in vitro activity of CM03 was paralleled in vivo, we explored the activity of CM03 in a mouse xenograft model of PDAC. We have previously reported that the maximum tolerated dosage (MTD) for intravenous (IV) administration of MM41 is 25 mg/kg.[33] CM03 was well tolerated, up to a dosage of 45–50 mg/kg, as judged by a dose-escalation MTD study. A therapeutic schedule of two CM03 intravenous (IV) doses was explored using a subcutaneous MIA PaCa-2 pancreatic tumor xenograft model derived from the human cell line used in the cell growth inhibition studies. A group size of eight CD-1 nude mice was used, and dosing was conducted at 10 and 15 mg/kg, each twice weekly, over a period of 4 weeks (28 days: 8 doses). Two further groups were given either MM41 or gemcitabine at 15 mg/kg and received the same dose regimen. […] IVIS imaging of treated mice was performed by taking account of the intrinsic fluorescence of CM03. […] Thus, in contrast to MM41 and gemcitabine, the higher-dose CM03 treatment results in a statistically significant (p < 0.001) antitumor effect, which persisted long after dosing had ceased, up to the termination of the xenograft experiment (62 days).
# For therapy studies, female CD-1 nude mice (2–3 months old, weighing 20–25 g) were injected subcutaneously with 5 × 10^6 MIA PaCa-2 cells in the right flank (unsupplemented RPMI + Matrigel). When the tumors were established (approximately 13 days, mean size 0.05 cm^3), the mice were divided into five treatment groups with eight mice/group. The MM41 and CM03 samples were dissolved directly in saline to the required concentrations and administered IV. Tumor size was measured weekly by calliper using the π-based ellipsoid volume formula (length × width × height × π/6) every 3–4 days, and the mice were also weighed and examined at the same time to determine any signs of toxicity from the drug.
# • Group 1:15 mg/kg of gemcitabine (Sigma), twice weekly dose. • Group 2:15 mg/kg of MM41, twice weekly dose. • Group 3:10 mg/kg of CM03, twice weekly dose. • Group 4:15 mg/kg of CM03, twice weekly dose. • Group 5: saline only, twice weekly dose.
# The xenograft data was analyzed using Student’s t test (GraphPad Inc.). Responses were considered to be significant for those with probabilities (p) less than 5% (p < 0.05). Mice were culled if there was any sign of tumor ulceration, if tumor volume exceeded 1.5 cm^3, or if a weight loss over 20% of initial body weight was observed. Samples of liver, kidney, and spleen from each animal in the CM03 (15 mg/kg) and untreated control groups were excised at the end of the therapy experiment, then fixed in 10% neutral buffered formalin for at least 48 h prior to processing and paraffin embedding. Tissue slices were stained with hematoxylin and eosin and assessed visually for any obvious differences compared with controls, indicative of toxicity and tissue damage. For the imaging study mice were anesthetized using isoflurane and imaged using the IVIS preclinical imaging system from PerkinElmer. Images were captured after 4 h following intravenous administration of CM03 using Cy5.5 excitation for 5 s.
# [3] = test system: MIA PaCa-2 and PANC-1 cells; assay: RT-qPCR validation of down-regulated genes; assay type: cell-based, human
# Text: The RNA-seq results are consistent with the hypothesis that G4 ligands can alter gene expression when PQs are targets in individual genes.[23] Previously, global G4-motif specific changes in the transcriptome with bisquinolinium compounds in HeLa cells have been reported using microarray analysis.[48] However, our work represents the first comprehensive analysis using state-of-the-art RNA-seq methodology. […] The observed transcriptional effects of CM03 also align with the hypothesis that down-regulation of gene expression is mediated through ligand-stabilized G4s, causing for example steric hindrance and inhibition of RNA pol II in the transcription bubble (reviewed in ref ([23])). The observations that transcriptional effects are closely aligned in two PDAC cell lines, independently sequenced, gives added confidence to these conclusions.
# MIA PaCa-2 (6 h = 2.5 × 10^6 and 24 h = 1.0 × 10^6 cells/well) and PANC-1 (6 h = 1.0 × 10^6 and 24 h = 0.5 × 10^6 cells/well) cell lines were seeded in 100 mm plates and incubated overnight. […] The concentration of harvested RNA was measured with a NanoDrop 2000/2000c spectrophotometer (ThermoFisher). […] The Ct values were normalized to the genomic mean of three housekeeping genes ACTB, GAPDH, and TUBB, and the fold change was determined using 2^–ΔΔCt.
# [4] = test system: PDAC MIA PaCa-2 cells; assay: 96 h SRB growth inhibition assay, MIA PaCa-2; assay type: cell-based, human; conditions: 96 h SRB IC50
# Description: Compounds were screened with a 96 h SRB (sulforhodamine B) assay for their antiproliferative activity in a panel of human cancer cell lines comprising lung adenocarcinoma (A549), breast adenocarcinoma (MCF7), and PDAC (MIA PaCa-2 and PANC-1) cell lines, as well as a fetal lung fibroblast-like nononcogenic control cell line (WI-38) (Figure 1f). […] Gemcitabine is also active in these lines at low nanomolar levels, although less so in MIA PaCa-2 (IC50 19 ± 5 nM) and more so in BX-PC3 cells (6 ± 2 nM).
# All cell lines were purchased from ATCC and maintained in appropriate medium supplemented with 10% fetal bovine serum (Invitrogen, UK), 2 mM L-glutamine (Invitrogen, Netherlands), and other components as specified by the suppliers. Cell lines were maintained at 37 °C, 5% CO2, and routinely passaged. Drugs were dissolved in H2O and filtered through 0.22 μm pore-size filter units (stock 10 mM) before addition to appropriate cell line media. Cellular growth inhibition was measured using the sulforhodamine B (SRB) assay in 96-well plates as described previously.[78] The 50% inhibitory concentrations (IC50) were determined by taking the mean absorbance at 540 nm for each drug concentration expressed as a percentage of the absorbance of untreated control wells.
# [5] = 15 mg/kg IV twice weekly for 28 days
# Sequence of hERG (Q12809 whole entry): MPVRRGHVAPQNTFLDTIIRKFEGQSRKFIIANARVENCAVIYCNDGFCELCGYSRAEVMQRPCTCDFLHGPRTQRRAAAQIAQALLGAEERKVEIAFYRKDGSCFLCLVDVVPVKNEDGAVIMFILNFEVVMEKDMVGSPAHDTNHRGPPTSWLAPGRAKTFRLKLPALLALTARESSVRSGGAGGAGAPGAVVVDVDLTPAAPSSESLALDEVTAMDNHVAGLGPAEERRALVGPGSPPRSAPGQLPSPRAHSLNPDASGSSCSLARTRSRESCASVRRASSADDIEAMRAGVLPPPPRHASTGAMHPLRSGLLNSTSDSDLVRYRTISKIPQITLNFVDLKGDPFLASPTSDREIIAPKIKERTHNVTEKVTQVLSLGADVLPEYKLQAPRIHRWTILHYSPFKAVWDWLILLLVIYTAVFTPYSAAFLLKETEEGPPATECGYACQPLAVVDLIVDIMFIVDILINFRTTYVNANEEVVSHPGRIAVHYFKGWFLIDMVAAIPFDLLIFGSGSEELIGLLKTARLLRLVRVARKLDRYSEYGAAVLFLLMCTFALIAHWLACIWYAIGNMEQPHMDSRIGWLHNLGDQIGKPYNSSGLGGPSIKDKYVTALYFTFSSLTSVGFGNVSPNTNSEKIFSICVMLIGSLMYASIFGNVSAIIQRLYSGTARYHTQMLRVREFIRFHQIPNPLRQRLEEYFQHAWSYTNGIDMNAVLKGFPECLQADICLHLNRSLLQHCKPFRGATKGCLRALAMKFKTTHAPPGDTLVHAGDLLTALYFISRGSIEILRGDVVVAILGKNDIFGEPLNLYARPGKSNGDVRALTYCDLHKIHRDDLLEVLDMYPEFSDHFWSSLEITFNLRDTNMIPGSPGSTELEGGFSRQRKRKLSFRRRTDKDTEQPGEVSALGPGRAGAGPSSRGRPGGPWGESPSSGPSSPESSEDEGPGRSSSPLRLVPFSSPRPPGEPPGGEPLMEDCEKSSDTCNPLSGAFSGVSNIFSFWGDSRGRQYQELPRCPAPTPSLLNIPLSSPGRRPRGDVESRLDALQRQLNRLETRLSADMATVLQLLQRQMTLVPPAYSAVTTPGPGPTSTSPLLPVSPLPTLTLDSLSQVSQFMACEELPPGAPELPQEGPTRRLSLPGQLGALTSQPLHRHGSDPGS
SMILES,hERG liabilities [1],MTV ± SEM (Day 62) ([2]; 10 mg/kg IV twice weekly for 28 days) [cm^3],"IVIS imaging, accumulation in tumor xenograft ([2]; 10 mg/kg, 4 h after IV administration)","MTV ± SEM (Day 29) [2, 5] [cm^3]","MTV ± SEM (Day 62) [2, 5] [cm^3]",animals with tumor volumes that shrank to <0.05 cm^3 by day 62 ([2]; 15 mg/kg cohort),"body weight and adverse effects ([2]; 15 mg/kg cohort, any time during the study)",tumor regrowth after dosing stopped [2],histopathological analysis of vital organs ([2]; animals sacrificed at the end of the experiments),"RT-qPCR expression of a small set of PDAC-pathway genes ([3]; 400 nM CM03, 6 and 24 h)",selectivity for MIA PaCa-2 compared to MCF-7 cells [4] [fold],"RT-qPCR expression of a small set of PDAC-pathway genes ([3]; 400 nM gemcitabine, 6 and 24 h)"
"O=C1c2ccc3c4c(c(NCCN5CCCC5)cc(c24)C(=O)N1CCCN1CCOCC1)C(=O)N(CCCN1CCOCC1)C3=O [CM03, 2,7-bis(3-morpholinopropyl)-4-((2-(pyrrolidin-1-yl)ethyl)amino)benzo[lmn][3,8]phenanthroline-1,3,6,8(2H,7H)-tetraone]",neither MM41 nor CM03 show significant hERG liabilities,0.29 ± 0.10,significant accumulation of CM03 in the tumor xenograft,0.04 ± 0.02,0.09 ± 0.05,Five out of the eight,No body weight reduction,no tumor regrowth was observed,no sign of organ damage,transcriptionally down-regulated in both cell lines,> 20,–
"Nc1ccn([C@@H]2O[C@H](CO)[C@@H](O)C2(F)F)c(=O)n1 [gemcitabine, reference compound]",–,–,–,0.05 ± 0.02,0.23 ± 0.10,–,–,tumor regrowth being apparent as soon as dosing was stopped,–,–,–,not significantly affected
